Source: ChEMBL document CHEMBL4364276, “Discovery of 4-phenyl-2H-benzo[b][1,4]oxazin-3(4H)-one derivatives as potent and orally active PI3K/mTOR dual inhibitors” (Eur J Med Chem, 2019)

Key:
[1] = target: Calcium/calmodulin-dependent protein kinase type II subunit gamma (Homo sapiens) (UniProt Q13555); experiment: Inhibition of human CAMK2G at 100 nM using KKLNRTLSFAEPG as substrate by [gamma-33P]-ATP assay
[2] = target: Tyrosine-protein kinase TXK (Homo sapiens) (UniProt P42681); experiment: Inhibition of human TXK at 100 nM using EAIYAAPFAKKK as substrate by [gamma-33P]-ATP assay
[3] = target: Serine/threonine-protein kinase Nek6 (Homo sapiens) (UniProt Q9HC98); experiment: Inhibition of human NEK6 at 100 nM using casein as substrate by [gamma-33P]-ATP assay
[4] = target: Serine/threonine-protein kinase pim-1 (Homo sapiens) (UniProt P11309); experiment: Inhibition of human PIM1 at 100 nM using KKRNRTLTK as substrate by [gamma-33P]-ATP assay
HeLa = experiment: Antitumor activity against human HeLa cells xenografted in BALB/c nude mouse assessed as tumor growth inhibition at 20 mg/kg, ig administered for 30 days measured every 3 days during compound dosing relative to control; type: functional; conditions: po, read-out: TGI
[5] = target: Activin receptor type-1 (Homo sapiens) (UniProt Q04771); experiment: Inhibition of human ALK2 at 100 nM using casein as substrate by [gamma-33P]-ATP assay
[6] = target: Epithelial discoidin domain-containing receptor 1 (Homo sapiens) (UniProt Q08345); experiment: Inhibition of human DDR1 at 100 nM using KKSRGDYMTMQIG as substrate by [gamma-33P]-ATP assay
[7] = target: Tyrosine-protein kinase Tec (Homo sapiens) (UniProt P42680); experiment: Inhibition of human TEC at 100 nM using poly[Glu:Tyr] (4:1) as substrate by [gamma-33P]-ATP assay
[8] = target: AMP-activated protein kinase (AMPK) alpha-1/beta-1/gamma-1 (Homo sapiens) (UniProt P54619+Q9Y478+Q13131); experiment: Inhibition of human AMPK (A1/B1/G1) at 100 nM using HMRSAMSGLHLVKRR as substrate by [gamma-33P]-ATP assay; type: protein-complex assay
[9] = target: Tyrosine-protein kinase Lyn (Homo sapiens) (UniProt P07948); experiment: Inhibition of human LYN at 100 nM using poly[Glu:Tyr] (4:1) as substrate by [gamma-33P]-ATP assay
[10] = target: Serine/threonine-protein kinase N2 (Homo sapiens) (UniProt Q16513); experiment: Inhibition of human PKN2 at 100 nM using KKLNRTLSVA as substrate by [gamma-33P]-ATP assay
[11] = target: Mitogen-activated protein kinase kinase kinase 5 (Homo sapiens) (UniProt Q99683); experiment: Inhibition of human ASK1 at 100 nM using MBP as substrate by [gamma-33P]-ATP assay
A549 [12] = experiment: Antitumor activity against human A549 cells xenografted in BALB/c nude mouse assessed as tumor growth inhibition at 20 mg/kg, ig administered for 30 days measured every 3 days during compound dosing relative to control; type: functional; conditions: A549, po, read-out: TGI
[13] = target: Mitogen-activated protein kinase 3 (Homo sapiens) (UniProt P27361); experiment: Inhibition of human ERK1 at 100 nM using MBP as substrate by [gamma-33P]-ATP assay
[14] = target: Serine/threonine-protein kinase TAO2 (Homo sapiens) (UniProt Q9UL54); experiment: Inhibition of human TAOK2 at 100 nM using MBP as substrate by [gamma-33P]-ATP assay
[15] = target: Serine/threonine-protein kinase SIK1 (Homo sapiens) (UniProt P57059); experiment: Inhibition of human SIK1 at 100 nM using AMARAASAAALARRR as substrate by [gamma-33P]-ATP assay
[16] = target: RAC-alpha serine/threonine-protein kinase (Homo sapiens) (UniProt P31749); experiment: Inhibition of human AKT1 at 100 nM using KGSGSGRPRTSSFAEG as substrate by [gamma-33P]-ATP assay
[17] = target: Serine/threonine-protein kinase N1 (Homo sapiens) (UniProt Q16512); experiment: Inhibition of human PKN1 at 100 nM using KKLNRTLSVA as substrate by [gamma-33P]-ATP assay
A549 [18] = experiment: Antitumor activity against human A549 cells xenografted in ig dosed BALB/c nude mouse assessed as tumor growth inhibition administered for 30 days measured every 3 days during compound dosing relative to control; type: functional, organism-based
[19] = target: Megakaryocyte-associated tyrosine-protein kinase (Homo sapiens) (UniProt P42679); experiment: Inhibition of human CTK at 100 nM using poly[Glu:Tyr] (4:1) as substrate by [gamma-33P]-ATP assay
[20] = target: Mitogen-activated protein kinase kinase kinase 3 (Homo sapiens) (UniProt Q99759); experiment: Inhibition of human MEKK3 at 100 nM using MBP as substrate by [gamma-33P]-ATP assay
[21] = target: Tyrosine-protein kinase receptor UFO (Homo sapiens) (UniProt P30530); experiment: Inhibition of human AXL at 100 nM using EAIYAAPFAKKK as substrate by [gamma-33P]-ATP assay
Homo sapiens = organism: Homo sapiens; experiment: Inhibition of human AMPK (A1/B1/G2) at 100 nM using HMRSAMSGLHLVKRR as substrate by [gamma-33P]-ATP assay
[22] = target: Cyclin-dependent kinase 14/Cyclin-Y (Homo sapiens) (UniProt O94921+Q8ND76); experiment: Inhibition of human CDK14/cyclin-Y at 100 nM using RB protein as substrate by [gamma-33P]-ATP assay; type: protein-complex assay
[23] = target: Aurora kinase A (Homo sapiens) (UniProt O14965); experiment: Inhibition of human Aurora A at 100 nM using [H-LRRASLG] as substrate by [gamma-33P]-ATP assay
[24] = target: Receptor-interacting serine/threonine-protein kinase 3 (Homo sapiens) (UniProt Q9Y572); experiment: Inhibition of human RIPK3 at 100 nM using MBP as substrate by [gamma-33P]-ATP assay
[25] = Clearance in Sprague-Dawley rat at 1 mg/kg, iv measured upto 24 hrs by LC-MS/MS analysis; type: ADME, organism-based; conditions: in vivo
[26] = target: Beta-adrenergic receptor kinase 1 (Homo sapiens) (UniProt P25098); experiment: Inhibition of human GRK2 at 100 nM using casein as substrate by [gamma-33P]-ATP assay
[27] = target: Dual specificity tyrosine-phosphorylation-regulated kinase 1B (Homo sapiens) (UniProt Q9Y463); experiment: Inhibition of human DYRK1B at 100 nM using RRRFRPASPLRGPPK as substrate by [gamma-33P]-ATP assay
[28] = Volume of distribution at steady state in Sprague-Dawley rat at 1 mg/kg, iv measured upto 24 hrs by LC-MS/MS analysis; type: ADME, organism-based; conditions: in vivo, read-out: Vdss
[29] = target: Phosphorylase b kinase gamma catalytic chain, skeletal muscle/heart isoform (Homo sapiens) (UniProt Q16816); experiment: Inhibition of human PHKgamma1 at 100 nM using MBP as substrate by [gamma-33P]-ATP assay
Chain of Phosphorylase b kinase gamma catalytic chain, skeletal muscle/heart isoform (Homo sapiens) (Q16816 whole entry, looked up, canonical isoform): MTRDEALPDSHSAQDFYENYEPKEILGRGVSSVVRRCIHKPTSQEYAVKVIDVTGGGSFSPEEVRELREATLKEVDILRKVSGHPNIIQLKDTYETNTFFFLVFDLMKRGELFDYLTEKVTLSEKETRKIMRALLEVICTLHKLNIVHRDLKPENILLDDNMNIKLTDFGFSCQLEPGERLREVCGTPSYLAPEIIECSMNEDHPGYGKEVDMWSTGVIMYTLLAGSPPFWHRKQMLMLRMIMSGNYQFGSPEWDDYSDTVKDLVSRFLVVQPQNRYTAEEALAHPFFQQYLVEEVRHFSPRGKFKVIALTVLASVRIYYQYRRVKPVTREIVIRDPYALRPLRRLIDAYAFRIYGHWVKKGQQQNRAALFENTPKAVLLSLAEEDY

Chain of Serine/threonine-protein kinase TAO2 (Homo sapiens) (Q9UL54 whole entry): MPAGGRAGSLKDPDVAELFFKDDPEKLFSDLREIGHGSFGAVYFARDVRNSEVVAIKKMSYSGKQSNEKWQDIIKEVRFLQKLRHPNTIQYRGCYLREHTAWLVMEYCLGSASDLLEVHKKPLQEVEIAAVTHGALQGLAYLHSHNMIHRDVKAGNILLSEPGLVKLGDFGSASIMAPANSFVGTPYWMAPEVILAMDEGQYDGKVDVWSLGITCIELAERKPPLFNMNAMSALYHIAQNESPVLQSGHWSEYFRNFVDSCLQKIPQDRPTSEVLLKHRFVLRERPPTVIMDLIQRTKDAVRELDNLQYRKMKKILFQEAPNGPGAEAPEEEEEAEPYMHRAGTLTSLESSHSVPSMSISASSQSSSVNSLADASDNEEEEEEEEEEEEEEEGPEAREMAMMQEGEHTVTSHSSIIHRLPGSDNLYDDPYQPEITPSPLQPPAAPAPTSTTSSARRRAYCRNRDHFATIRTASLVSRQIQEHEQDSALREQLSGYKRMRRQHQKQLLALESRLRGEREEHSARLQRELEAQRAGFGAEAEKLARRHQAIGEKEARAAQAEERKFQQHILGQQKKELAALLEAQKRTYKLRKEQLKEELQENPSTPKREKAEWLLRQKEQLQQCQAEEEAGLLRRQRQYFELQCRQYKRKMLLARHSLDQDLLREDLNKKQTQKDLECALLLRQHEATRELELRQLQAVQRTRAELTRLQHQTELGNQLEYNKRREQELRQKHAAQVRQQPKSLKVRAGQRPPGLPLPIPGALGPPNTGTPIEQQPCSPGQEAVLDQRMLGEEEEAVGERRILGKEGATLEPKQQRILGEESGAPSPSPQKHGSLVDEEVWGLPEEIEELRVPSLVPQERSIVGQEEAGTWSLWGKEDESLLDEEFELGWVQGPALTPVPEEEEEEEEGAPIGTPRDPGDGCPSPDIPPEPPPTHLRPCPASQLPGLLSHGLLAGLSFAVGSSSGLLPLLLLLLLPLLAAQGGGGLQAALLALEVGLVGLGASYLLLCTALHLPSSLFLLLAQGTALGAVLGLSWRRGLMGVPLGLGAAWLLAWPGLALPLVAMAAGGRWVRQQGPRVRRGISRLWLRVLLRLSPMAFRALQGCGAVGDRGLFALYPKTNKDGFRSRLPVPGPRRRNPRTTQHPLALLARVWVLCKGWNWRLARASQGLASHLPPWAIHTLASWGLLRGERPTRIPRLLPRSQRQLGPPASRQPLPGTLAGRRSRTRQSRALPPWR
Chain of AMP-activated protein kinase (AMPK) alpha-1/beta-1/gamma-1 (Homo sapiens) (P54619 whole entry): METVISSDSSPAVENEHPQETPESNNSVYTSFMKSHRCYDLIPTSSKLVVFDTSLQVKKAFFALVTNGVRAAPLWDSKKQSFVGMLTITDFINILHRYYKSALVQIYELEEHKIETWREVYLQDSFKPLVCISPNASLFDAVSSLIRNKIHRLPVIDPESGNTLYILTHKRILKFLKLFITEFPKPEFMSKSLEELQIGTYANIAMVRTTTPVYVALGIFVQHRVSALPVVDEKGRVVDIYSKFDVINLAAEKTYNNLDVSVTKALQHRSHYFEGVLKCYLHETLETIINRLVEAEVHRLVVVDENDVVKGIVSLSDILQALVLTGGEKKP
Chain of AMP-activated protein kinase (AMPK) alpha-1/beta-1/gamma-1 (Homo sapiens) (Q13131 whole entry partner): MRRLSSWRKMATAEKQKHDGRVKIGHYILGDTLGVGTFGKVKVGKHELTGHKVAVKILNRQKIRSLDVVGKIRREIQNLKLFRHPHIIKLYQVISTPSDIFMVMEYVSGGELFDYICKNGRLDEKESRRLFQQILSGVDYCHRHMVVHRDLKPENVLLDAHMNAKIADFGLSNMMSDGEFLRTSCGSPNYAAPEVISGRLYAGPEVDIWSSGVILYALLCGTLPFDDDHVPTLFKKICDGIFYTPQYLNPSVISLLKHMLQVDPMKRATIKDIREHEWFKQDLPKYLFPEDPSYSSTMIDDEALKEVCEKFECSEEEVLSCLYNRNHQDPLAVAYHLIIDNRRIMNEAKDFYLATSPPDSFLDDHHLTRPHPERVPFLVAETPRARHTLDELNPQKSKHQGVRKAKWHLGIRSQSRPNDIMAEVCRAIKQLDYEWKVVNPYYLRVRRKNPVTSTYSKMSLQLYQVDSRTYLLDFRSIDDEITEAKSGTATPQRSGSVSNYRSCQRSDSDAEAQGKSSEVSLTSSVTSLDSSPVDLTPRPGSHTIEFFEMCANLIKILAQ
Chain of AMP-activated protein kinase (AMPK) alpha-1/beta-1/gamma-1 (Homo sapiens) (Q9Y478 2-270 partner limits assumed): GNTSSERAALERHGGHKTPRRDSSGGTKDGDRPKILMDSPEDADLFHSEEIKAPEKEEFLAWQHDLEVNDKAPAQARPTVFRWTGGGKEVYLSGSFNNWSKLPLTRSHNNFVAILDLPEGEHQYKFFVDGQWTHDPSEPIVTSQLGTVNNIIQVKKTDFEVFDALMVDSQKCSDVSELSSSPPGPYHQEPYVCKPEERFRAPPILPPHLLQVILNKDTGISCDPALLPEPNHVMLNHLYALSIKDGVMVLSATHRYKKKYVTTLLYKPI
Chain of RAC-alpha serine/threonine-protein kinase (Homo sapiens) (P31749 whole entry): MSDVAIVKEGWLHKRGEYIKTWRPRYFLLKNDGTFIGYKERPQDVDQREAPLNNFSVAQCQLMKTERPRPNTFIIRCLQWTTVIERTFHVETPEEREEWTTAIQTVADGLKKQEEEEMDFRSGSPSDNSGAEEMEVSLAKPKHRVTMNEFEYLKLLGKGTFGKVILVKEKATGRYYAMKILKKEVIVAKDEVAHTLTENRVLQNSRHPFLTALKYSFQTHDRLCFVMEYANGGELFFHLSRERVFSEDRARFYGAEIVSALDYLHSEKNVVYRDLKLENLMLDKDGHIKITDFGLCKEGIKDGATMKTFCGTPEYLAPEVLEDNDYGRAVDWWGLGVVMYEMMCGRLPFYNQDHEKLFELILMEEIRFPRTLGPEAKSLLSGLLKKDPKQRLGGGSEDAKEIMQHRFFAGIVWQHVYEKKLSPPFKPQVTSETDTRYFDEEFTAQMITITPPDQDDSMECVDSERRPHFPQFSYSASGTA
Chain of Serine/threonine-protein kinase pim-1 (Homo sapiens) (P11309 whole entry, looked up): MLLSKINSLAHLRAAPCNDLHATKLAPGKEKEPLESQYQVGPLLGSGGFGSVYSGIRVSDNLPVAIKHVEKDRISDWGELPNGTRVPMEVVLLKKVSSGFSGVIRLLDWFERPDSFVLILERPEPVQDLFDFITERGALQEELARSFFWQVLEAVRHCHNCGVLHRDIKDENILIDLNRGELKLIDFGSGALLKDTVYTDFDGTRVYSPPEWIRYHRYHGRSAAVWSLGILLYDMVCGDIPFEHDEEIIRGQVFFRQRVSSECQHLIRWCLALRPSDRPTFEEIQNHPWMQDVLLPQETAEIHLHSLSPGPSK
Chain of Mitogen-activated protein kinase kinase kinase 3 (Homo sapiens) (Q99759 whole entry): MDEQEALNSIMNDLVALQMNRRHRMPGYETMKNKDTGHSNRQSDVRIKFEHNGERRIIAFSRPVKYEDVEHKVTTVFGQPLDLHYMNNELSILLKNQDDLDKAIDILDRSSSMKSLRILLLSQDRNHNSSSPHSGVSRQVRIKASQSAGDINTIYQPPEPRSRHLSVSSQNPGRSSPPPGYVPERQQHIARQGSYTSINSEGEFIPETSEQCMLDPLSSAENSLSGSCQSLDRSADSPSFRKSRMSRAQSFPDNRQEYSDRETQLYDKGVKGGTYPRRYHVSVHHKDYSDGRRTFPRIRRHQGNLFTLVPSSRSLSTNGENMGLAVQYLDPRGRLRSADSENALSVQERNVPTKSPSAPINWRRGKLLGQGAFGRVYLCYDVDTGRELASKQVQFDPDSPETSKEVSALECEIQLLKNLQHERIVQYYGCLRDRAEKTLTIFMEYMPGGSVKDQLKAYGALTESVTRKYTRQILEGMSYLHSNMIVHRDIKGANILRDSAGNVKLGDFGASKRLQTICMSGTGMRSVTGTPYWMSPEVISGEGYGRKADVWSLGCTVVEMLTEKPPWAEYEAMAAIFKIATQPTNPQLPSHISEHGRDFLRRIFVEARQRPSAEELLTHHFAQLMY
Chain of Tyrosine-protein kinase Lyn (Homo sapiens) (P07948 2-512 limits assumed): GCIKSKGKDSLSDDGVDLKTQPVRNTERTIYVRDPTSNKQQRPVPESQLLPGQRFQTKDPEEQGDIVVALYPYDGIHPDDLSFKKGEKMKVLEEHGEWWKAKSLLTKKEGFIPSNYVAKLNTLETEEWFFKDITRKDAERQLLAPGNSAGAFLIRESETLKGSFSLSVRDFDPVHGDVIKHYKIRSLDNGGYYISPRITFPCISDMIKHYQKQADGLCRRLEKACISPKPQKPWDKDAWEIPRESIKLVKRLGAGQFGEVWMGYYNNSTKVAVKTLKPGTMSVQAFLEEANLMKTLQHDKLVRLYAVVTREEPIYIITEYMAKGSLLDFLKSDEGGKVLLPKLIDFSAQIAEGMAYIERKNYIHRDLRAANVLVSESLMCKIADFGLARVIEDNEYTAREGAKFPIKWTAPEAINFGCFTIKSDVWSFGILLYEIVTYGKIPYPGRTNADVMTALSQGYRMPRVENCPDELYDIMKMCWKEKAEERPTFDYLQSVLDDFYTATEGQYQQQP

COc1ccc(N2C(=O)COc3ccc(-c4cnc(OC)c(NS(=O)(=O)c5ccc(F)cc5)c4)cc32)cc1
inhibition [1]: 2.55% | inhibition [2]: 9.62% | inhibition [3]: -2.82% | inhibition [4]: 19.4% | inhibition in vivo at 20 mg/kg (HeLa): 66.6% | inhibition [5]: 12.7% | inhibition [6]: 2.59% | inhibition [7]: -4.06% | inhibition [8]: -4.91% | inhibition [9]: -1.62% | inhibition [10]: 6.6% | inhibition [11]: -8.49% | inhibition in vivo at 20 mg/kg (A549 [12]): 57.8% | inhibition [13]: 12.7% | inhibition [14]: -3.9% | inhibition [15]: 5.31% | inhibition [16]: 18.2% | inhibition [17]: 16.8% | TGI (A549 [18]): Dose-dependent effect | inhibition [19]: -7.54% | inhibition [20]: 2.85% | inhibition [21]: 25.4% | inhibition (Homo sapiens): -8.22% | inhibition [22]: 4.76% | inhibition [23]: 3.17% | inhibition [24]: -2.23% | clearance [25]: 8.56 mL/min/kg | inhibition [26]: 0.16% | inhibition [27]: 18.8% | Vd [28]: 1.2 L/kg | inhibition [29]: 12.3%
